Paper PMC12096176 (RSC Chemical Biology, 2025)

How the values were obtained:
[1] = target: DOR (Homo sapiens, UniProt P41143); assay type: binding
[2] = target: KOR (Homo sapiens, UniProt P41145); assay type: binding
[3] = tested on: MOR; assay type: binding; details: for Selectivity D/M: ratio Ki DOR / Ki MOR; for Selectivity K/M: ratio Ki KOR / Ki MOR
[4] = target: MOR (Mus musculus, UniProt P42866); assay: MOR [35S]GTPγS functional assay, MOR-CHO membranes; assay type: biochemical; details: for Emax: read-out: MOR [35S]GTPγS Emax, relative to maximal stimulation produced by DAMGO; for MOR [35S]GTPγS Emax: relative to maximal stimulation produced by DAMGO
[5] = tested on: Swiss Webster mice; assay: Warm-water tail immersion assay, agonism; details: single dose 10 mg kg^−1 s.c., 20 min after injection
[6] = tested on: Swiss Webster mice; assay: Warm-water tail immersion assay, antagonism of morphine antinociception; details: single dose 10 mg kg^−1 s.c. in the presence of morphine 10 mg kg^−1 s.c.

## O=C(N[C@H]1CC[C@@]2(O)[C@H]3Cc4ccc(O)c5c4[C@@]2(CCN3CC2CC2)[C@H]1O5)c1cccc2c(Cl)coc12 [Compound 3, 3-Chloro-N-((4R,4aS,7S,7aR,12bS)-3-(cyclopropylmethyl)-4a,9-dihydroxy-2,3,4,4a,5,6,7,7a-octahydro-1H-4,12-methanobenzofuro[3,2-e]isoquinolin-7-yl)benzofuran-7-carboxamide]
[1]
  Ki: 138 ± 24 nM
[2]
  Ki: 17.1 ± 1.3 nM
[3]
  Selectivity D/M: 277
  Selectivity K/M: 34
[4]
  EC50: 2.65 ± 0.47 nM
  Emax: 21.6 ± 0.8%

## Cc1coc2c(C(=O)N[C@@H]3CC[C@@]4(O)[C@H]5Cc6ccc(O)c7c6[C@@]4(CCN5CC4CC4)[C@H]3O7)cccc12 [Compound 10, N-((4R,4aS,7R,7aR,12bS)-3-(Cyclopropylmethyl)-4a,9-dihydroxy-2,3,4,4a,5,6,7,7a-octahydro-1H-4,12-methanobenzofuro[3,2-e]isoquinolin-7-yl)-3-methylbenzofuran-7-carboxamide]
[1]
  Ki: 13.1 ± 1.1 nM
[2]
  Ki: 0.44 ± 0.08 nM
[3]
  Selectivity D/M: 57
  Selectivity K/M: 1.9
[4]
  EC50: 0.81 ± 0.14 nM
  Emax: 32.7 ± 3.3%
[5]
  %MPE (antinociception): 54.2%

## Cc1coc2c(C(=O)N[C@H]3CC[C@@]4(O)[C@H]5Cc6ccc(O)c7c6[C@@]4(CCN5CC4CC4)[C@H]3O7)cccc12 [Compound 4, N-((4R,4aS,7S,7aR,12bS)-3-(Cyclopropylmethyl)-4a,9-dihydroxy-2,3,4,4a,5,6,7,7a-octahydro-1H-4,12-methanobenzofuro[3,2-e]isoquinolin-7-yl)-3-methylbenzofuran-7-carboxamide]
[1]
  Ki: 87 ± 5.3 nM
[2]
  Ki: 15.7 ± 1.3 nM
[3]
  Selectivity D/M: 130
  Selectivity K/M: 23
[4]
  EC50: 4.52 ± 0.39 nM
  Emax: 23.5 ± 1.6%

## O=C(N[C@H]1CC[C@@]2(O)[C@H]3Cc4ccc(O)c5c4[C@@]2(CCN3CC2CC2)[C@H]1O5)c1cccc2c(-c3ccncc3)coc12 [Compound 6, N-((4R,4aS,7S,7aR,12bS)-3-(Cyclopropylmethyl)-4a,9-dihydroxy-2,3,4,4a,5,6,7,7a-octahydro-1H-4,12-methanobenzofuro[3,2-e]isoquinolin-7-yl)-3-(pyridin-4-yl)benzofuran-7-carboxamide]
[1]
  Ki: 97.7 ± 16.3 nM
[2]
  Ki: 8.7 ± 1.5 nM
[3]
  Selectivity D/M: 41
  Selectivity K/M: 3.7
[4]
  EC50: 12 ± 2.1 nM
  Emax: 14.8 ± 1.6%

## O=C(N[C@@H]1CC[C@@]2(O)[C@H]3Cc4ccc(O)c5c4[C@@]2(CCN3CC2CC2)[C@H]1O5)c1cccc2c(-c3ccncc3)coc12 [Compound 12, N-((4R,4aS,7R,7aR,12bS)-3-(Cyclopropylmethyl)-4a,9-dihydroxy-2,3,4,4a,5,6,7,7a-octahydro-1H-4,12-methanobenzofuro[3,2-e]isoquinolin-7-yl)-3-(pyridin-4-yl)benzofuran-7-carboxamide]
[1]
  Ki: 45 ± 9.3 nM
[2]
  Ki: 7.34 ± 0.95 nM
[6]
  ability to reverse the antinociceptive effects of morphine: considerable antagonism activity
[3]
  Selectivity D/M: 213
  Selectivity K/M: 35
[4]
  EC50: 1.2 ± 0.38 nM
  Emax: ~10%

## Cl.O=C(N[C@H]1CC[C@@]2(O)[C@H]3Cc4ccc(O)c5c4[C@@]2(CCN3CC2CC2)[C@H]1O5)c1cccc2c(Br)coc12 [Compound 2, 3-Bromo-N-((4R,4aS,7S,7aR,12bS)-3-(cyclopropylmethyl)-4a,9-dihydroxy-2,3,4,4a,5,6,7,7a-octahydro-1H-4,12-methanobenzofuro[3,2-e]isoquinolin-7-yl)benzofuran-7-carboxamide hydrochloride]
[1]
  Ki: 87.8 ± 5.5 nM
[2]
  Ki: 17.3 ± 1.2 nM
[3]
  Selectivity D/M: 154
  Selectivity K/M: 30
[4]
  EC50: 7.37 ± 2.32 nM
  MOR [35S]GTPγS Emax: 16.0 ± 4.0%

## O=C(N[C@H]1CC[C@@]2(O)[C@H]3Cc4ccc(O)c5c4[C@@]2(CCN3CC2CC2)[C@H]1O5)c1cccc2c(-c3ccccc3)coc12 [Compound 5, N-((4R,4aS,7S,7aR,12bS)-3-(Cyclopropylmethyl)-4a,9-dihydroxy-2,3,4,4a,5,6,7,7a-octahydro-1H-4,12-methanobenzofuro[3,2-e]isoquinolin-7-yl)-3-phenylbenzofuran-7-carboxamide]
[1]
  Ki: 238 ± 28 nM
[2]
  Ki: 33.8 ± 5.6 nM
[3]
  Selectivity D/M: 173
  Selectivity K/M: 24
[4]
  EC50: 27.4 ± 5 nM
  Emax: 17.3 ± 1%

## O=C(N[C@@H]1CC[C@@]2(O)[C@H]3Cc4ccc(O)c5c4[C@@]2(CCN3CC2CC2)[C@H]1O5)c1cccc2c(Cl)coc12 [Compound 9, 3-Chloro-N-((4R,4aS,7R,7aR,12bS)-3-(cyclopropylmethyl)-4a,9-dihydroxy-2,3,4,4a,5,6,7,7a-octahydro-1H-4,12-methanobenzofuro[3,2-e]isoquinolin-7-yl)benzofuran-7-carboxamide]
[1]
  Ki: 5.17 ± 1.13 nM
[2]
  Ki: 0.16 ± 0.02 nM
[3]
  Selectivity D/M: 37
  Selectivity K/M: 1.1
[4]
  EC50: 0.35 ± 0.07 nM
  Emax: 51.2 ± 3.4%
[5]
  %MPE (antinociception): 84.5%

## O=C(N[C@@H]1CC[C@@]2(O)[C@H]3Cc4ccc(O)c5c4[C@@]2(CCN3CC2CC2)[C@H]1O5)c1cccc2c(-c3ccccc3)coc12 [Compound 11, N-((4R,4aS,7R,7aR,12bS)-3-(Cyclopropylmethyl)-4a,9-dihydroxy-2,3,4,4a,5,6,7,7a-octahydro-1H-4,12-methanobenzofuro[3,2-e]isoquinolin-7-yl)-3-phenylbenzofuran-7-carboxamide]
[1]
  Ki: 22.1 ± 3.2 nM
[2]
  Ki: 19.7 ± 2.2 nM
[6]
  ability to reverse the antinociceptive effects of morphine: considerable antagonism activity
[3]
  Selectivity D/M: 123
  Selectivity K/M: 110
[4]
  EC50: 0.56 ± 0.07 nM
  Emax: ~10%

## Cl.O=C(N[C@@H]1CC[C@@]2(O)[C@H]3Cc4ccc(O)c5c4[C@@]2(CCN3CC2CC2)[C@H]1O5)c1cccc2c(Br)coc12 [Compound 8, 3-Bromo-N-((4R,4aS,7R,7aR,12bS)-3-(cyclopropylmethyl)-4a,9-dihydroxy-2,3,4,4a,5,6,7,7a-octahydro-1H-4,12-methanobenzofuro[3,2-e]isoquinolin-7-yl)benzofuran-7-carboxamide hydrochloride]
[1]
  Ki: 5.34 ± 0.99 nM
[2]
  Ki: 0.21 ± 0.01 nM
[3]
  Selectivity D/M: 27
  Selectivity K/M: 1.0
[4]
  EC50: 0.49 ± 0.08 nM
  MOR [35S]GTPγS Emax: 42.9 ± 3.9%
[5]
  %MPE (antinociception): 90.9%
